We go through 11 molecules from patent publication US8071625B2, “Certain chemical entities, compositions, and methods” (Cytokinetics, Inc., priority 2006, dated 2011).

This assay addresses T1, crosslinked smooth muscle actomyosin (chicken gizzard smooth muscle myosin subfragment-1 crosslinked to cardiac or skeletal actin) (Gallus gallus, UniProt P10587).
T1 construct: chicken gizzard smooth muscle myosin subfragment-1; from tissue; host or cells: chicken gizzard
The experiment in a line: Lead optimization pyruvate kinase/horseradish peroxidase/pyruvate oxidase-coupled ATPase assay (compound dose response). The format is biochemical. The settings on record: read-out: IC50 Arithmetic Mean. A digest of the protocol:
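IC50 is the midpoint of a 4-parameter dose–response fit of Amplex Red fluorescence (480/615 nm). Buffer was 12 mM potassium PIPES pH 7.00 at 22 °C with 100 mM KCl, 2 mM MgCl2, 0.15 mM ATP and 2 mM phosphate, with PK/pyruvate oxidase/HRP coupling. Enzyme: smooth muscle myosin S1 crosslinked to cardiac or skeletal actin, dosed empirically by activity.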

The term IC50 denotes the concentration that inhibits the measured activity by half. For `CN(CCOC(=O)Nc1ccc(-c2ccccc2)cc1)C(=O)NCc1ccccc1Cl` [{[(2-chlorophenyl)methyl]amino}-N-methyl-N-{2-[N-(4-phenylphenyl)carbamoyloxy]ethyl}carboxamide], the IC50 amounted to 248 nM.

As for `CCc1ccc(NC(=O)OCC(C)(C)N(C)C(=O)NCc2ccccc2Cl)cc1` [{[(2-chlorophenyl)methyl]amino}-N-{2-[N-(4-ethylphenyl)carbamoyloxy]-tert-butyl}-N-methylcarboxamide], the IC50 came to 621 nM.

Consider `CCc1ccc(NC(=O)OCCN(CCCCO)C(=O)NCc2ccccc2Cl)cc1` [{[(2-chlorophenyl)methyl]amino}-N-{2-[N-(4-ethylphenyl)carbamoyloxy]ethyl}-N-(4-hydroxybutyl) carboxamide], for which the concentration for half-maximal inhibition (IC50) was determined as 355 nM.

Regarding `CCc1ccc(NC(=O)OCCN(CCNC)C(=O)NCc2ccccc2Cl)cc1` [{[(2-chlorophenyl)methyl]amino}-N-{2-[N-(4-ethylphenyl)carbamoyloxy]ethyl}-N-[2-(methylamino)ethyl]carboxamide], the IC50 came to 16300 nM.

As to `CCc1ccc(NC(=O)OCCN(C)C(=O)NCc2ccccc2Cl)cc1` [{[(2-chlorophenyl)methyl]amino}-N-{2-[N-(4-ethylphenyl)carbamoyloxy]ethyl}-N-methylcarboxamide], the half-inhibitory concentration (IC50) was determined as 84 nM.

For `CCc1ccc(NC(=O)OCCCN(C)C(=O)NCc2ccccc2Cl)cc1` [{[(2-chlorophenyl)methyl]amino}-N-{3-[N-(4-ethylphenyl)carbamoyloxy]propyl}-N-methylcarboxamide], the IC50 stood at 1670 nM.

`CCc1ccc(NC(=O)OCCCCN(C)C(=O)NCc2ccccc2Cl)cc1` [{[(2-chlorophenyl)methyl]amino}-N-{4-[N-(4-ethylphenyl)carbamoyloxy]butyl}-N-methylcarboxamide]: the IC50 came to 6070 nM.

Take `CCc1ccc(NC(=O)OCCN(C)C(=O)N(C)Cc2ccccc2Cl)cc1` [{[(2-chlorophenyl)methyl]methylamino}-N-{2-[N-(4-ethylphenyl)carbamoyloxy]ethyl}-N-methylcarboxamide]: the IC50 was 2080 nM.

For the molecule “(tert-butoxy)-N-[2-(3-{N-[(2-chlorophenyl)methyl]carbamoyl}-3-{[N-(4-ethylphenyl)carbamoyloxy]methyl}piperidyl)-2-oxoethyl]carboxamide”, the IC50 was found to be 1430 nM.

With “methyl (3S)-3-amino-4-(4-{N-[(2-chlorophenyl)methyl]carbamoyl}-4-{[N-(4-ethylphenyl)carbamoyloxy]methyl}piperidyl)-4-oxobutanoate”, the half-inhibitory concentration (IC50) worked out at 1120 nM.

In the case of “tert-butyl 4-[(4-{N-[(2-chlorophenyl)methyl]carbamoyl}-4-{[N-(4-ethylphenyl)carbamoyloxy]methyl}piperidyl)carbonyl]piperidinecarboxylate”, the IC50 worked out at 3550 nM.
